In patent US20170072012A1, “USE OF GSMTX4 TO REDUCE ISCHEMIA REPERFUSION INJURY” (priority 2014, published 2017):
Read-outs that look alike come from different tables or passages of the source. Where a SMILES comes first, the peptide text is derived from it. Bridges are numbered along the chain shown (N, C = ends). [ ]: non-standard residue; d: D form.

Columns and labels:
[1] = Single-dose pharmacokinetic study, plasma and heart concentration by LC/MS/MS; format: in vivo, CD-1 mice; settings: for Tmax: female, CD-1, mouse, plasma and heart
Method: For single-dose pharmacokinetic studies, 7-9 week old female CD-1 mice were obtained from Charles River Laboratories, Inc. by Covance Laboratories Inc., Greenfield, Ind., USA. For subcutaneous injection, GsMTx4-D was dissolved at a concentration of 7.5 mg/ml in phosphate buffered saline pH 7.4 and injected subcutaneously into the back of mice at a net dose of 50 mg/kg. For intravenous (IV) administration into the tail vein, 1.5 mg/ml GsMTx4-D was used to achieve a dose of 5 mg/kg. Animals were sacrificed at 5, 15, 30, 60, 120, 480, 960 and 1920 min after injection, and blood and heart tissue samples were harvested. Animals were checked for death or morbidity during the whole trial. At the conclusion of each trial period, mice were euthanized by CO2 inhalation for 10 min. Blood samples were treated with sodium heparin and centrifuged to obtain plasma. There were cohorts of 3 mice per time point, and tissue samples from the 3 animals were combined from each time point to create average samples. Samples were sent to Custom Biologics, Mississauga, ON, Canada to measure the amount of GsMTx4 by liquid chromatography tandem mass spectrometry (LC/MS/MS) in the tissue samples. A reference standard was included in each sample consisting of a functional mutant of GsMTx4-D (F34A). All procedures in this protocol are in compliance with the U.S. Department of Agriculture's (USDA) Animal Welfare Act (9 CFR Parts 1, 2, and 3); the Guide for the Care and Use of Laboratory Animals: Eighth Edition, (Institute for Laboratory Animal Research, The National Academies Press, Washington, D.C., 2010); and the National Institutes of Health, Office of Laboratory Animal Welfare. Whenever possible, procedures in this study were designed to avoid or minimize discomfort, distress, and pain to animals. For ischemic reperfusion (I/R) testing, we used male C57B1/6J mice (4-6 months of age) obtained from Jackson Laboratories (Bar Harbor, […].). All animal protocols in this study were approved by the Institutional Animal Care and Use Committee of the University at Buffalo-State University of New York.
To provide a frame of reference for concentration and timing, we compared IV (fast absorption) to subcutaneous (slow absorption) administration and determined the distribution of the peptide in the heart and plasma over 24 hrs using LC/MS/MS (FIG. 1). Mice were sacrificed at different times after injection and the plasma (FIG. 1A) and heart (FIG. 1B) concentrations sampled. […] The samples from the 3 mouse cohorts at each time point were mixed and averaged. […] IV injection of 5 mg/kg GsMTx4-D produced an early spike in plasma concentration ([…] at 5 min) that decayed within 30 min. […] We used 1-5 μM ([…] is 1 μM) as our target concentration for treatment. IV injection of 5 mg/kg GsMTx4-D produced plasma concentrations within 5 minutes that were substantially above the target concentration while whole heart concentrations were somewhat lower than this range. Other ranges may be used for treatment, such as about 1.5-4.5 μM, about 2-4 μM, about 2.5-3.5 μM, about 1-4 μM, about 1-3 μM and about 1-2 μM. The whole heart concentration was lower than the target range within 5 minutes of IV injection, but the net plasma concentrations were acceptable.
Based on the slower distribution by subcutaneous administration, we injected 10 times the concentration of GsMTx4-D as that used in IV injection. The concentrations increased more slowly in both plasma and heart, peaking in ˜2 hrs, although we could reliably detect it in both tissues within 5 minutes. […] Without being bound by any theory, we believe that this is likely due to deeper infiltration into the tissue, and possibly higher affinity associations.

[2] = system: I/R induced arrhythmias in mouse heart; assay: Heart rhythm analysis (ECG) during reperfusion, I/R induced arrhythmia; format: in vivo, C57B1/6J mice; settings: for total incidence of arrhythmias (ventricular and supraventricular premature beats): vehicle 14.9±4.5; for mean heart rate during the 15 min of reperfusion: vehicle 162.9±13.2
Method: During reperfusion we continuously recorded ECGs, from which mean heart rate, PR, QRS, and QT intervals were derived for each animal. We evaluated the incidence of arrhythmias by counting the incidences of arrhythmias including ventricular and supraventricular premature beats by summing the number of episodes based on limb lead recordings for 15 min after reperfusion. Ventricular premature beats are considered more severe. Each group contained 5 to 7 independent experiments (vehicle n=7, verapamil n=6, GsMTx4-D 0.1mg/kg n=5, 1 mg/kg n=6 and 10 mg/kg n=5).
Heart rate and rhythm were monitored by ECG to confirm the hallmark ischemic ST-segment elevation during coronary occlusion, and the gradually increasing inversion of the T-wave during reperfusion (FIG. 4A). Since generation of arrhythmias is a good indicator of the level of I/R damage, we counted ventricular and supraventricular premature beats occurring within 15 min of reperfusion (FIG. 4B). No ventricular tachycardia was observed during 20 min ischemia and 15 min reperfusion in the mouse heart. […] Considering that ventricular premature beats are indicative of more severe damage, the incidence of this specific arrhythmia was analyzed separately (FIG. 4 D). […] There was no difference in mean heart rate before ischemia (FIG. 4E). […] There was no difference in PR, QRS or QT intervals after treatment in all groups (data not shown).

[3] = subcutaneous injection 50 mg/kg

Structure (SMILES): CC(C)C[C@H]1NC(=O)[C@H](NC(=O)CN)CSSC[C@H]2NC(=O)[C@H]3CSSC[C@H](C(=O)N[C@H](CC(N)=O)C(=O)N[C@H](Cc4ccccc4)C(=O)N[C@H](CO)C(=O)N[C@H](Cc4ccccc4)C(N)=O)NC(=O)[C@@H](CC(C)C)NC(=O)[C@@H](CCCCN)NC(=O)[C@@H](Cc4ccccc4)NC(=O)[C@@H](CC(C)C)NC(=O)[C@@H](CCCCN)NC(=O)[C@@H](CO)NC(=O)[C@@H](CSSC[C@@H](NC(=O)[C@@H](CCCCN)NC(=O)[C@@H](Cc4c[nH]c5ccccc45)NC(=O)[C@@H](Cc4c[nH]c5ccccc45)NC(=O)[C@@H](Cc4ccccc4)NC(=O)[C@@H](CCC(=O)O)NC1=O)C(=O)N[C@H](CC(N)=O)C(=O)N1CCC[C@@H]1C(=O)N[C@H](CC(N)=O)C(=O)N[C@H](CC(=O)O)C(=O)N[C@H](CC(=O)O)C(=O)N[C@H](CCCCN)C(=O)N3)NC(=O)[C@@H](CCCCN)NC(=O)[C@@H](CC(C)C)NC(=O)[C@@H](CCCCN)NC(=O)[C@H]1CCCN1C(=O)[C@@H](CCCNC(=N)N)NC2=O [GsMTx4-D] (H-G[dC][dL][dE][dF][dW][dW][dK][dC][dN][dP][dN][dD][dD][dK][dC][dC][dR][dP][dK][dL][dK][dC][dS][dK][dL][dF][dK][dL][dC][dN][dF][dS][dF]-NH2; disulfide 2-17, 9-23, 16-30 (inferred); N-terminus and C-terminus assumed)
- death or abnormal behavior during PK study ([1]; IV 5 mg/kg or subcutaneous 50 mg/kg): No mice died during the study, nor did any show abnormal behavior
- time within which plasma concentration spike decayed ([1]; IV injection of 5 mg/kg): ≤ 30 min
- Tmax ([1]; 5 mg/kg, after IV injection, read-out: time of concentration spike in plasma and heart): < 0.0833 h
- Tmax ([1]; sc, subcutaneous injection 50 mg/kg, read-out: time of peak concentration in plasma and heart): ~2 h
- half-life ([1]; mouse, in vivo, D form): > 24 h
- heart concentration twenty four hours after injection ([1]; single 50 mg/kg subcutaneous injection, target range 1-5 μM): near the target range
- plasma concentration by 24 hrs [1, 3]: nearly undetectable
- time of peak concentration in plasma and heart [1, 3]: ~2 h
- total incidence of arrhythmias (ventricular and supraventricular premature beats) ([2]; 0.1 mg/kg IV 5 min before reperfusion, not significantly different): 10.4±6 incidence/15 min reperfusion
- total incidence of arrhythmias (ventricular and supraventricular premature beats) ([2]; 1 mg/kg IV 5 min before reperfusion): 2.3±0.7 incidence/15 min reperfusion
- mean heart rate during the 15 min of reperfusion ([2]; 1 mg/kg IV): 255.7±33.4
- ventricular premature beats ([2]; 1 mg/kg IV, within 15 min of reperfusion, vehicle 5.7±1.8): 1.3±0.4
- total incidence of arrhythmias (ventricular and supraventricular premature beats) ([2]; 10 mg/kg IV 5 min before reperfusion): 2.2±1.0 incidence/15 min reperfusion
- mean heart rate during the 15 min of reperfusion ([2]; 10 mg/kg IV): 286.1±25.0
